# Laboratory results taken from ChEMBL document CHEMBL3046669, “Insecticide resistance of the oriental fruit fly, Bactrocera dorsalis (Hendel) (Diptera: Tephritidae), in mainland China” (2011).
# Experiments:
# Type in all cases: functional
# Bactrocera dorsalis [1] = assay: Resistance ratio of LC50 for adult Bactrocera dorsalis GZ08 to LC50 for adult Bactrocera dorsalis after 24 hr
# Bactrocera dorsalis [2] = assay: Insecticidal activity against adult Bactrocera dorsalis CS08 assessed as mortality after 24 hr; conditions: CS08, 24 h
# Bactrocera dorsalis [3] = assay: Resistance ratio of LC50 for adult Bactrocera dorsalis QY08 to LC50 for adult Bactrocera dorsalis after 24 hr
# Bactrocera dorsalis [4] = assay: Insecticidal activity against adult Bactrocera dorsalis ZJ07 assessed as mortality after 24 hr; conditions: ZJ07, 24 h
# Bactrocera dorsalis [5] = assay: Insecticidal activity against adult Bactrocera dorsalis assessed as mortality after 24 hr
# Bactrocera dorsalis [6] = assay: Insecticidal activity against adult Bactrocera dorsalis NN07 assessed as mortality after 24 hr; conditions: NN07, 24 h
# Bactrocera dorsalis [7] = assay: Resistance ratio of LC50 for adult Bactrocera dorsalis ZJ07 to LC50 for adult Bactrocera dorsalis after 24 hr
# Bactrocera dorsalis [8] = assay: Resistance ratio of LC50 for adult Bactrocera dorsalis CS08 to LC50 for adult Bactrocera dorsalis after 24 hr
# Bactrocera dorsalis [9] = assay: Insecticidal activity against adult Bactrocera dorsalis HZ08 assessed as mortality after 24 hr; conditions: HZ08, 24 h
# Bactrocera dorsalis [10] = assay: Insecticidal activity against adult Bactrocera dorsalis CH08 assessed as mortality after 24 hr; conditions: CH08, 24 h
# Bactrocera dorsalis [11] = assay: Resistance ratio of LC50 for adult Bactrocera dorsalis CH08 to LC50 for adult Bactrocera dorsalis after 24 hr
# Bactrocera dorsalis [12] = assay: Insecticidal activity against adult Bactrocera dorsalis HK07 assessed as mortality after 24 hr; conditions: HK07, 24 h
# Bactrocera dorsalis [13] = assay: Resistance ratio of LC50 for adult Bactrocera dorsalis NN07 to LC50 for adult Bactrocera dorsalis after 24 hr
# Bactrocera dorsalis [14] = assay: Resistance ratio of LC50 for adult Bactrocera dorsalis GZ07 to LC50 for adult Bactrocera dorsalis after 24 hr
# Bactrocera dorsalis [15] = assay: Insecticidal activity against adult Bactrocera dorsalis QY08 assessed as mortality after 24 hr; conditions: QY08, 24 h
# Bactrocera dorsalis [16] = assay: Insecticidal activity against adult Bactrocera dorsalis HY08 assessed as mortality after 24 hr; conditions: HY08, 24 h
# Bactrocera dorsalis [17] = assay: Resistance ratio of LC50 for adult Bactrocera dorsalis FZ08 to LC50 for adult Bactrocera dorsalis after 24 hr
# Bactrocera dorsalis [18] = assay: Insecticidal activity against adult Bactrocera dorsalis WX08 assessed as mortality after 24 hr; conditions: WX08, 24 h
# Bactrocera dorsalis [19] = assay: Resistance ratio of LC50 for adult Bactrocera dorsalis FZ07 to LC50 for adult Bactrocera dorsalis after 24 hr
# Bactrocera dorsalis [20] = assay: Insecticidal activity against adult Bactrocera dorsalis GZ07 assessed as mortality after 24 hr; conditions: GZ07, 24 h
# Bactrocera dorsalis [21] = assay: Insecticidal activity against adult Bactrocera dorsalis C-R-45 assessed as mortality
# Bactrocera dorsalis [22] = assay: Resistance ratio of LC50 for adult Bactrocera dorsalis HZ07 to LC50 for adult Bactrocera dorsalis after 24 hr
# Bactrocera dorsalis [23] = assay: Insecticidal activity against adult Bactrocera dorsalis YJ08 assessed as mortality after 24 hr; conditions: YJ08, 24 h
# Bactrocera dorsalis [24] = assay: Resistance ratio of LC50 for adult Bactrocera dorsalis YJ08 to LC50 for adult Bactrocera dorsalis after 24 hr
# Bactrocera dorsalis [25] = assay: Insecticidal activity against adult Bactrocera dorsalis HK08 assessed as mortality after 24 hr; conditions: HK08, 24 h
# Bactrocera dorsalis [26] = assay: Resistance ratio of LC50 for adult Bactrocera dorsalis C-R-45 to LC50 for adult Bactrocera dorsalis
# Bactrocera dorsalis [27] = assay: Insecticidal activity against adult Bactrocera dorsalis WX07 assessed as mortality after 24 hr; conditions: WX07, 24 h
# Bactrocera dorsalis [28] = assay: Insecticidal activity against adult Bactrocera dorsalis FZ07 assessed as mortality after 24 hr; conditions: FZ07, 24 h
# Bactrocera dorsalis [29] = assay: Resistance ratio of LC50 for adult Bactrocera dorsalis WX08 to LC50 for adult Bactrocera dorsalis after 24 hr
# Bactrocera dorsalis [30] = assay: Insecticidal activity against adult Bactrocera dorsalis CH07 assessed as mortality after 24 hr; conditions: CH07, 24 h
# Bactrocera dorsalis [31] = assay: Resistance ratio of LC50 for adult Bactrocera dorsalis HK07 to LC50 for adult Bactrocera dorsalis after 24 hr
# Bactrocera dorsalis [32] = assay: Resistance ratio of LC50 for adult Bactrocera dorsalis HK08 to LC50 for adult Bactrocera dorsalis after 24 hr
# Bactrocera dorsalis [33] = assay: Resistance ratio of LC50 for adult Bactrocera dorsalis MM07 to LC50 for adult Bactrocera dorsalis after 24 hr
# Bactrocera dorsalis [34] = assay: Resistance ratio of LC50 for adult Bactrocera dorsalis C-R-48 to LC50 for adult Bactrocera dorsalis
# Bactrocera dorsalis [35] = assay: Resistance ratio of LC50 for adult Bactrocera dorsalis HZ08 to LC50 for adult Bactrocera dorsalis after 24 hr
# Bactrocera dorsalis [36] = assay: Insecticidal activity against adult Bactrocera dorsalis GZ08 assessed as mortality after 24 hr; conditions: GZ08, 24 h
# Bactrocera dorsalis [37] = assay: Insecticidal activity against adult Bactrocera dorsalis CS07 assessed as mortality after 24 hr; conditions: CS07, 24 h
# Bactrocera dorsalis [38] = assay: Insecticidal activity against adult Bactrocera dorsalis MM08 assessed as mortality after 24 hr; conditions: MM08, 24 h
# Bactrocera dorsalis [39] = assay: Resistance ratio of LC50 for adult Bactrocera dorsalis WX07 to LC50 for adult Bactrocera dorsalis after 24 hr
# Bactrocera dorsalis [40] = assay: Insecticidal activity against adult Bactrocera dorsalis C-R-48 assessed as mortality
# Bactrocera dorsalis [41] = assay: Insecticidal activity against adult Bactrocera dorsalis HZ07 assessed as mortality after 24 hr; conditions: HZ07, 24 h
# Bactrocera dorsalis [42] = assay: Resistance ratio of LC50 for adult Bactrocera dorsalis YJ07 to LC50 for adult Bactrocera dorsalis after 24 hr
# Bactrocera dorsalis [43] = assay: Resistance ratio of LC50 for adult Bactrocera dorsalis MM08 to LC50 for adult Bactrocera dorsalis after 24 hr
# Bactrocera dorsalis [44] = assay: Resistance ratio of LC50 for adult Bactrocera dorsalis HY08 to LC50 for adult Bactrocera dorsalis after 24 hr
# Bactrocera dorsalis [45] = assay: Resistance ratio of LC50 for adult Bactrocera dorsalis QY07 to LC50 for adult Bactrocera dorsalis after 24 hr
# Bactrocera dorsalis [46] = assay: Resistance ratio of LC50 for adult Bactrocera dorsalis HY07 to LC50 for adult Bactrocera dorsalis after 24 hr
# Bactrocera dorsalis [47] = assay: Resistance ratio of LC50 for adult Bactrocera dorsalis CH07 to LC50 for adult Bactrocera dorsalis after 24 hr
# Bactrocera dorsalis [48] = assay: Insecticidal activity against adult Bactrocera dorsalis YJ07 assessed as mortality after 24 hr; conditions: YJ07, 24 h
# Bactrocera dorsalis [49] = assay: Insecticidal activity against adult Bactrocera dorsalis QY07 assessed as mortality after 24 hr; conditions: QY07, 24 h
# Bactrocera dorsalis [50] = assay: Resistance ratio of LC50 for adult Bactrocera dorsalis CS07 to LC50 for adult Bactrocera dorsalis after 24 hr
# Bactrocera dorsalis [51] = assay: Insecticidal activity against adult Bactrocera dorsalis FZ08 assessed as mortality after 24 hr; conditions: FZ08, 24 h
# Bactrocera dorsalis [52] = assay: Insecticidal activity against adult Bactrocera dorsalis NN08 assessed as mortality after 24 hr; conditions: NN08, 24 h
# Bactrocera dorsalis [53] = assay: Resistance ratio of LC50 for adult Bactrocera dorsalis NN08 to LC50 for adult Bactrocera dorsalis after 24 hr
# Bactrocera dorsalis [54] = assay: Insecticidal activity against adult Bactrocera dorsalis HY07 assessed as mortality after 24 hr; conditions: HY07, 24 h
# Bactrocera dorsalis [55] = assay: Insecticidal activity against adult Bactrocera dorsalis MM07 assessed as mortality after 24 hr; conditions: MM07, 24 h
smiles,measurement,setting,value
CC1(C)[C@H](C=C(Cl)Cl)[C@H]1C(=O)O[C@@H](C#N)c1cccc(Oc2ccccc2)c1 [BETA-CYPERMETHRIN],RatioLC50,Bactrocera dorsalis [1],9.71
same,LC50,Bactrocera dorsalis [2],14.8 µg/mL
same,RatioLC50,Bactrocera dorsalis [3],4.91
same,LC50,Bactrocera dorsalis [4],7.49 µg/mL
same,LC90,Bactrocera dorsalis [5],3.6 µg/mL
same,LC50,"Bactrocera dorsalis [5]; Bactrocera dorsalis, 24 h",2.49 µg/mL
same,LC50,Bactrocera dorsalis [6],7.95 µg/mL
same,RatioLC50,Bactrocera dorsalis [7],3.01
same,RatioLC50,Bactrocera dorsalis [8],5.93
same,LC50,Bactrocera dorsalis [9],70.7 µg/mL
same,LC50,Bactrocera dorsalis [10],60.6 µg/mL
same,RatioLC50,Bactrocera dorsalis [11],24.35
same,LC50,Bactrocera dorsalis [12],15.5 µg/mL
same,RatioLC50,Bactrocera dorsalis [13],3.19
same,RatioLC50,Bactrocera dorsalis [14],18.6
same,LC50,Bactrocera dorsalis [15],12.2 µg/mL
same,LC50,Bactrocera dorsalis [16],42.5 µg/mL
same,RatioLC50,Bactrocera dorsalis [17],8.17
same,LC50,Bactrocera dorsalis [18],110 µg/mL
same,RatioLC50,Bactrocera dorsalis [19],5.34
same,LC50,Bactrocera dorsalis [20],46.3 µg/mL
same,LC90,Bactrocera dorsalis [21],7082.07 µg/mL
same,LC50,"Bactrocera dorsalis [21]; Bactrocera dorsalis, C-R-45",820 µg/mL
same,RatioLC50,Bactrocera dorsalis [22],4.57
same,LC50,Bactrocera dorsalis [23],10.5 µg/mL
same,RatioLC50,Bactrocera dorsalis [24],4.23
same,LC50,Bactrocera dorsalis [25],30.3 µg/mL
same,RatioLC50,Bactrocera dorsalis [26],329.3
same,LC50,Bactrocera dorsalis [27],23.9 µg/mL
same,LC50,Bactrocera dorsalis [28],13.3 µg/mL
same,RatioLC50,Bactrocera dorsalis [29],44.03
same,LC50,Bactrocera dorsalis [30],64.1 µg/mL
same,RatioLC50,Bactrocera dorsalis [31],6.23
same,RatioLC50,Bactrocera dorsalis [32],12.17
same,RatioLC50,Bactrocera dorsalis [33],17
same,RatioLC50,Bactrocera dorsalis [34],333.42
same,RatioLC50,Bactrocera dorsalis [35],28.39
same,LC50,Bactrocera dorsalis [36],24.2 µg/mL
same,LC50,Bactrocera dorsalis [37],15.1 µg/mL
same,LC50,Bactrocera dorsalis [38],34.2 µg/mL
same,RatioLC50,Bactrocera dorsalis [39],9.59
same,LC90,Bactrocera dorsalis [40],3959.5 µg/mL
same,LC50,"Bactrocera dorsalis [40]; Bactrocera dorsalis, C-R-48",830 µg/mL
same,LC50,Bactrocera dorsalis [41],11.4 µg/mL
same,RatioLC50,Bactrocera dorsalis [42],1.1
same,RatioLC50,Bactrocera dorsalis [43],13.72
same,RatioLC50,Bactrocera dorsalis [44],17.06
same,RatioLC50,Bactrocera dorsalis [45],6.08
same,RatioLC50,Bactrocera dorsalis [46],13.14
same,RatioLC50,Bactrocera dorsalis [47],25.74
same,LC50,Bactrocera dorsalis [48],2.74 µg/mL
same,LC50,Bactrocera dorsalis [49],15.1 µg/mL
same,RatioLC50,Bactrocera dorsalis [50],6.06
same,LC50,Bactrocera dorsalis [51],20.4 µg/mL
same,LC50,Bactrocera dorsalis [52],12.5 µg/mL
same,RatioLC50,Bactrocera dorsalis [53],5.02
same,LC50,Bactrocera dorsalis [54],32.7 µg/mL
same,LC50,Bactrocera dorsalis [55],42.3 µg/mL
